According to ChEMBL document CHEMBL4270495, “Oleanane-, ursane-, and quinone methide friedelane-type triterpenoid derivatives: Recent advances in cancer treatment” (Eur J Med Chem, 2017):
pIC50: −log10 of the molar value.

How the values were obtained:
[1] = tested on: SGC-7901; test: Cytotoxicity in human SGC7901 cells assessed as reduction in cell viability incubated for 48 hrs by MTT assay; format: functional, cell-based; details: SGC-7901, 48 h
[2] = tested on: HepG2; test: Cytotoxicity in human HepG2 cells assessed as reduction in cell viability incubated for 24 hrs by MTT assay; format: functional, cell-based; details: HepG2, 24 h
[3] = tested on: A-375; test: Cytotoxicity in human A375 cells assessed as reduction in cell viability incubated for 24 hrs by MTT assay; format: functional, cell-based; details: A-375, 24 h
[4] = Cytotoxicity in human SPC-A1 cells assessed as reduction in cell viability incubated for 24 hrs by MTT assay; format: functional, cell-based; details: SPCA1, 24 h
[5] = tested on: HepG2; test: Cytotoxicity in human HepG2 cells assessed as reduction in cell viability incubated for 48 hrs by MTT assay; format: functional, cell-based; details: HepG2, 48 h
[6] = tested on: NCI-H446; test: Cytotoxicity in human NCI-H446 cells assessed as reduction in cell viability incubated for 24 hrs by MTT assay; format: functional, cell-based; details: NCI-H446, 24 h
[7] = tested on: HeLa; test: Cytotoxicity in human HeLa cells assessed as reduction in cell viability incubated for 48 hrs by MTT assay; format: functional, cell-based
[8] = tested on: SMMC-7721; test: Cytotoxicity in human SMMC7721 cells assessed as reduction in cell viability incubated for 48 hrs by MTT assay; format: functional, cell-based; details: SMMC-7721, 48 h
[9] = tested on: MCF7; test: Cytotoxicity in human MCF7 cells assessed as reduction in cell viability; format: functional, cell-based
[10] = tested on: MDA-MB-468; test: Cytotoxicity in human MDA-MB-468 cells assessed as reduction in cell viability incubated for 24 hrs by MTT assay; format: functional, cell-based; details: MDA-MB-468, 24 h
[11] = tested on: MDA-MB-231; test: Cytotoxicity in human MDA-MB-231 cells assessed as reduction in cell viability incubated for 24 hrs by MTT assay; format: functional, cell-based; details: MDA-MB-231, 24 h
[12] = tested on: HL60/ADR; test: Cytotoxicity in human HL60/ADR cells assessed as reduction in cell viability incubated for 24 hrs by MTT assay; format: functional, cell-based
[13] = tested on: MCF7; test: Cytotoxicity in human MCF7 cells assessed as reduction in cell viability incubated for 24 hrs by MTT assay; format: functional, cell-based; details: MCF7, 24 h
[14] = tested on: HL-60; test: Cytotoxicity in human HL60 cells assessed as reduction in cell viability incubated for 24 hrs by MTT assay; format: functional, cell-based; details: HL-60, 24 h
[15] = tested on: MCF7; test: Cytotoxicity in human MCF7 cells assessed as reduction in cell viability incubated for 48 hrs by SRB assay; format: functional, cell-based; details: MCF7, 48 h
[16] = tested on: MCF-12A; test: Cytotoxicity in human MCF12A cells assessed as reduction in cell viability incubated for 24 hrs by MTT assay; format: functional, cell-based
[17] = tested on: T47D; test: Cytotoxicity in human T47D cells assessed as reduction in cell viability incubated for 24 hrs by MTT assay; format: functional, cell-based
[18] = tested on: MDA-MB-231; test: Cytotoxicity in human MDA-MB-231 cells assessed as reduction in cell viability incubated for 48 hrs by SRB assay; format: functional; details: MDA-MB-231, 48 h
[19] = tested on: MCF7; test: Cytotoxicity in human MCF7 cells assessed as reduction in cell viability incubated for 72 hrs by MTT assay; format: functional, cell-based; details: MCF7, 72 h
[20] = tested on: HeLa; test: Cytotoxicity in human HeLa cells assessed as reduction in cell viability incubated for 72 hrs by MTT assay; format: functional, cell-based
[21] = tested on: HT-29; test: Cytotoxicity in human HT-29 cells assessed as reduction in cell viability incubated for 72 hrs by MTT assay; format: functional, cell-based; details: HT-29, 72 h
[22] = tested on: HepG2; test: Cytotoxicity in human HepG2 cells assessed as reduction in cell viability incubated for 72 hrs by CCK8 assay; format: functional, cell-based; details: HepG2, 72 h
[23] = tested on: A549; test: Cytotoxicity in human A549 cells assessed as reduction in cell viability incubated for 72 hrs by CCK8 assay; format: functional, cell-based; details: A549, 72 h
[24] = tested on: PC-3; test: Cytotoxicity in human PC3 cells assessed as reduction in cell viability incubated for 72 hrs by CCK8 assay; format: functional, cell-based; details: PC-3, 72 h
[25] = tested on: HeLa; test: Cytotoxicity in human HeLa cells assessed as reduction in cell viability incubated for 72 hrs by CCK8 assay; format: functional, cell-based
[26] = tested on: A549; test: Cytotoxicity in human A549 cells assessed as reduction in cell viability incubated for 24 hrs by MTT assay; format: functional, cell-based; details: A549, 24 h
[27] = tested on: MCF7; test: Cytotoxicity in human MCF7 cells assessed as reduction in cell viability incubated for 72 hrs by CCK8 assay; format: functional, cell-based; details: MCF7, 72 h

C[C@@H]1CC[C@]2(C(=O)O)CC[C@]3(C)C(=CC(=O)[C@@H]4[C@@]5(C)CC[C@H](O)[C@](C)(CO)[C@@H]5CC[C@]43C)[C@@H]2[C@]1(C)O
pIC50 [1]: 4.78 | pIC50 [2]: 5.13 | pIC50 [3]: 4.76 to 4.78 | pIC50 [4]: 4.07 | pIC50 [5]: 5.08 | pIC50 [6]: 4.94 | pIC50 [7]: 4.73

CC1=C(O)C(=O)C=C2C1=CC=C1[C@@]2(C)CC[C@@]2(C)[C@@H]3C[C@](C)(C(=O)NCC(C)O)CC[C@]3(C)CC[C@]12C (stereo not given in full)
pIC50 [1]: 7.00 | pIC50 [8]: 6.21

C[C@H]1[C@H](C)CC[C@]2(C(N)=O)CC[C@]3(C)C(=CC[C@@H]4[C@@]5(C)CC[C@H](OC(=O)CCC(=O)O)C(C)(C)[C@@H]5CC[C@]43C)[C@H]12
pIC50 [2]: 5.04 | pIC50 [9]: 4.35

CC1(C)CC[C@]2(C(=O)O)CC[C@]3(C)C(=CC[C@@H]4[C@@]5(C)CC[C@H](O)C(C)(C)[C@@H]5CC[C@]43C)[C@@H]2C1 [OLEANOLIC_ACID]
pIC50 [10]: 4.42 | pIC50 [11]: < 4.30 | pIC50 [12]: 4.54 | pIC50 [13]: 4.90 | pIC50 [14]: 4.83 | GI50 [15]: 10.3 µM | pIC50 [16]: < 4.30 | pIC50 [17]: 4.44 | GI50 [18]: 17.6 µM

CC1=C(O)C(=O)C=C2C1=CC=C1[C@@]2(C)CC[C@@]2(C)[C@@H]3C[C@](C)(C(=O)NCCO)CC[C@]3(C)CC[C@]12C
pIC50 [1]: 6.80 | pIC50 [8]: 6.52

COC(=O)[C@]12CCC(C)(C)C[C@H]1C1=CC(=O)[C@@H]3[C@@]4(C)CC/C(=N\O)C(C)(C)[C@@H]4CC[C@@]3(C)[C@]1(C)CC2
pIC50 [10]: 5.37 | pIC50 [11]: 4.68 | pIC50 [12]: 5.45 | pIC50 [13]: 5.49 | pIC50 [14]: 5.43 | pIC50 [16]: 4.59 | pIC50 [17]: 5.00

CCCC(=O)OC[C@]1(C)C=C(C=O)[C@@]2(C)[C@H]1CC[C@]1(C)[C@@H]2C(=O)C=C2[C@@H]3[C@@H](C)[C@H](C)CC[C@]3(C(=O)OC)CC[C@]21C
pIC50 [19]: 6.06 | pIC50 [20]: 6.31 | pIC50 [21]: 6.11

CC(=O)OC[C@]1(C)[C@@H]2CC[C@]3(C)[C@H](C(=O)C=C4[C@H]5[C@](C(=O)OCC(=O)N/N=C/c6ccccc6)(CC[C@@H](C)[C@@]5(C)O)CC[C@]43C)[C@@]2(C)CC[C@@H]1OC(C)=O
pIC50 [3]: 5.51 | pIC50 [4]: 5.07 | pIC50 [6]: 4.93

CC(=O)OC[C@@]1(C)[C@@H]2CC[C@]3(C)[C@H](CC=C4[C@@H]5[C@@H](C)[C@H](C)CC[C@]5(C(=O)O)CC[C@]43C)[C@@]2(C)C[C@@H](OC(C)=O)[C@@H]1OC(C)=O
pIC50 [22]: 4.99 | pIC50 [23]: 4.68 | pIC50 [24]: 4.76 | pIC50 [25]: 4.62

C[C@@H]1O[C@@H](O[C@@H]2[C@@H](O)[C@H](O[C@H]3CC[C@@]4(C)[C@@H](CC[C@]5(C)[C@@H]4CC=C4[C@H]6CC(C)(C)CC[C@]6(C(=O)O)CC[C@]45C)[C@]3(C)CO)OC[C@@H]2O[C@H]2O[C@H](CO)[C@@H](O)[C@H](O)[C@@H]2O)[C@H](O)[C@@H](O)[C@H]1O
pIC50 [13]: < 4.30 | pIC50 [26]: 4.71

CC(=O)OC[C@]1(C)[C@@H]2CC[C@]3(C)[C@H](C(=O)C=C4[C@H]5[C@](C(=O)OCC(=O)N/N=C/c6ccc(C)cc6)(CC[C@@H](C)[C@@]5(C)O)CC[C@]43C)[C@@]2(C)CC[C@@H]1OC(C)=O
pIC50 [3]: 5.19 | pIC50 [4]: 5.13 | pIC50 [6]: 4.82

C[C@H]1[C@H](C)CC[C@]2(C(N)=O)CC[C@]3(C)C(=CC[C@@H]4[C@@]5(C)CC[C@H](OC(=O)c6ccccc6)C(C)(C)[C@@H]5CC[C@]43C)[C@H]12
pIC50 [2]: 5.10 | pIC50 [9]: 4.35

COC1=C(Br)C(=O)c2c([nH]c3c2C[C@]2(C)[C@H]4CC=C5[C@@H]6[C@@H](C)[C@H](C)CC[C@]6(C(=O)O)CC[C@@]5(C)[C@]4(C)CC[C@H]2C3(C)C)C1=O
pIC50 [5]: 5.80 | pIC50 [8]: 5.92

CC(=O)OC[C@]1(C)[C@@H]2CC[C@]3(C)[C@H](C(=O)C=C4[C@H]5[C@](C(=O)OCC(=O)N/N=C/c6ccc(Cl)cc6)(CC[C@@H](C)[C@@]5(C)O)CC[C@]43C)[C@@]2(C)CC[C@@H]1OC(C)=O
pIC50 [3]: < 4.00 | pIC50 [4]: < 4.00 | pIC50 [6]: < 4.00

COC(=O)[C@]12CC[C@@H](C)[C@H](C)[C@H]1C1=CC(=O)[C@@H]3[C@@]4(C)C(C#N)=C[C@@](C)(COS(C)(=O)=O)[C@@H]4CC[C@@]3(C)[C@]1(C)CC2
pIC50 [19]: 4.71 | pIC50 [20]: 5.14 | pIC50 [21]: 5.01

CC(=O)O[C@H]1CC[C@]2(C)[C@H]3CC=C4[C@@H]5[C@@H](C)[C@H](C)CC[C@]5(C(=O)NCCCCC(C)N)CC[C@@]4(C)[C@]3(C)CC[C@H]2C1(C)C (stereo not given in full)
pIC50 [2]: 5.30 | pIC50 [9]: 5.32

CC1(C)CC[C@@]23CC[C@]4(C)[C@@](OC2=O)([C@@H]3C1)[C@@H](Br)C[C@@H]1[C@@]2(C)CC/C(=N\O)C(C)(C)[C@@H]2CC[C@]14C
pIC50 [10]: 5.24 | pIC50 [11]: < 4.30 | pIC50 [12]: 4.92 | pIC50 [13]: 5.18 | pIC50 [14]: 4.99 | pIC50 [16]: 4.69 | pIC50 [17]: 5.24

COC(=O)C(C)NC(=O)[C@]12CC[C@@H](C)[C@H](C)[C@H]1C1=CC[C@@H]3[C@@]4(C)C[C@@H](O)[C@H](O)[C@@](C)(CO)[C@@H]4CC[C@@]3(C)[C@]1(C)CC2 (stereo not given in full)
pIC50 [27]: 4.77 | pIC50 [22]: 4.69 | pIC50 [23]: 4.66 | pIC50 [25]: 4.72

COC(=O)[C@]12CCC(C)(C)C[C@H]1C1=CC(=O)[C@@H]3[C@@]4(C)CCC(=O)C(C)(C)[C@@H]4CC[C@@]3(C)[C@]1(C)CC2
pIC50 [11]: 4.48 | pIC50 [12]: 5.12 | pIC50 [14]: 5.55
